Measurements reported in patent publication EP2975030B1, “DIHYDROPYRIDAZINE-3,5-DIONE DERIVATIVE” (Chugai Seiyaku Kabushiki Kaisha, priority 2013, dated 2014).

Tested on: rat small-intestinal brush border membrane vesicles
Test: Inhibitory effect on 33PO4 uptake into rat small-intestinal brush border membrane vesicles (rapid filtration method)
Type: biochemical, Wistar female rat
Details: 1 µM test compound; 33PO4 uptake into rat small-intestinal BBMVs, 60 seconds
Summary of the method: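 33PO4 uptake into rat small-intestinal brush border membrane vesicles measured by rapid filtration. Reactions were stopped with ice-cold buffer (110 mM NaCl, 1 mM KH2PO4, 10 mM HEPES pH 7.5), filtered and washed. Vesicle-associated radioactivity was counted by liquid scintillation.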

Molecule	Rate of uptake inhibition (%) (1 µM)
C[C@]12CCCN1N(Cc1c(F)cc(CCCCCCCOC[C@H](O)[C@@H](O)CO)cc1F)C(=O)C(C(=O)Nc1ccc(C(F)(F)F)cc1-c1ccc(C(F)(F)F)nc1)=C2O [Example 125, (4aR)-1-[[2,6-Difluoro-4-[7-[(2S,3S)-2,3,4-trihydroxybutoxy]heptyl]phenyl]methyl]-4-hydroxy-4a-methvl-2-oxo-N-[4-(trifluoromethyl)-2-[6-(trifluoromethyl)pyridin-3-yl]phenyl]-6,7-dihydro-5H-pyrrolo[1,2-b]pyridazine-3-carboxamide]	76
C[C@]12CCCN1N(Cc1cccc(F)c1F)C(=O)C(C(=O)Nc1ccc(Br)cc1)=C2O [Example 77]	80
CC(C)(C)[C@H]1C(O)=C(C(=O)Nc2ccc(Cl)cc2-c2ccc(C(F)(F)F)nc2)C(=O)N(Cc2cccc(F)c2F)N1CC(F)(F)F [Example 247]	51
CN1CCC(Oc2ccc(CN3C(=O)C(C(=O)Nc4ccc(C(F)(F)F)cc4-c4cc(C(F)(F)F)ncn4)=C(O)C4(CCC4)N3C)c(F)c2F)CC1 [Example 411]	32
CN1[C@@H](C(C)(C)C)C(O)=C(C(=O)Nc2ccc(C(F)(F)F)cc2-c2ccc(C(F)(F)F)nc2)C(=O)N1Cc1cccc(F)c1F [Example 238]	47
C[C@@]12CCCN1N(Cc1ccc(OCCN3CCOCC3)c(F)c1F)C(=O)C(C(=O)Nc1ccc(C(F)(F)F)cc1-c1cc(C(F)(F)F)ncn1)=C2O.Cl [Example 108]	54
C[C@]12CCCN1N(Cc1ccc(F)cc1F)C(=O)C(C(=O)Nc1ccc(C(F)(F)F)cc1-c1ccc(C(F)(F)F)nc1)=C2O [Example 173]	73
COc1cc(-c2cc(C(F)(F)F)ccc2NC(=O)C2=C(O)[C@@]3(C)CCCN3N(Cc3cccc(F)c3F)C2=O)cnc1C#N [Example 114, (4aR)-N-[2-(6-Cyano-5-methoxypyridin-3-yl)-4-(trifluoromethyl)phenyl]-1-[(2,3-difluorophenyl)methyl]-4-hydroxy-4a-methyl-2-oxo-6,7-dihydro-5H-pyrrolo[1,2-b]pyridazine-3-carboxamide]	86
CN1N(Cc2ccc(OCCCCOC[C@H](O)CO)c(F)c2F)C(=O)C(C(=O)Nc2ccc(C(F)(F)F)cc2-c2cc(C(F)(F)F)ncn2)=C(O)C12CCC2 [Example 390]	58
C[C@]12CCCN1N(Cc1cccc(F)c1F)C(=O)C(C(=O)Nc1ccc(C(F)(F)F)cc1-c1cnc(N3CC4(COC4)C3)c(C#N)c1)=C2O [Example 111, (4aR)-N-[2-[5-Cyano-6-(2-oxa-6-azaspiro[3.3]heptan-6-yl)pyridin-3-yl]-4-(trifluoromethyl)phenyl]-1-[(2,3-difluorophenyl)methyl]-4-hydroxy-4a-methyl-2-oxo-6,7-dihydro-5H-pvrrolo[1,2-b]pyridazine-3-carboxamide]	56
C[C@]12CCCN1N(Cc1cc(F)cc(F)c1)C(=O)C(C(=O)Nc1ccc(C(F)(F)F)cc1-c1cc(C(F)(F)F)ncn1)=C2O [Example 213]	79
CN1N(Cc2ccc(OCCN3CCN(CCO)CC3)c(F)c2F)C(=O)C(C(=O)Nc2ccc(C(F)(F)F)cc2-c2cc(C(F)(F)F)ncn2)=C(O)C12CCC2 [Example 360]	21
(4aR)-1-[(3-Fluorophenyl)methyl]-4-hydroxy-4a-methyl-N-[5-methyl-2-(trifluoromethyl)furan-3-yl]-2-oxo-6,7-dihydro-5H-pyrrolo[1,2-b]pyridazine-3-carboxamide [Example 6]	48
CN1N(Cc2cccc(F)c2F)C(=O)C(C(=O)Nc2cc(F)c(Br)c(F)c2)=C(O)C12CCC2 [Example 257]	71
Cc1c(C#N)ncnc1-c1cc(C(F)(F)F)ccc1NC(=O)C1=C(O)C(C)(C)N(C)N(Cc2cccc(F)c2F)C1=O [Example 311]	65
C[C@]12CCCN1N(Cc1cccc(Cl)c1F)C(=O)C(C(=O)Nc1ccc(C(F)(F)F)cc1-c1cc(C(F)(F)F)ncn1)=C2O [Example 209]	76
CN1[C@@H](C(C)(C)C)C(O)=C(C(=O)Nc2ccc(C(F)(F)F)cc2-c2ccnc(C#N)c2)C(=O)N1Cc1ccc(OCCN2CCOCC2)c(F)c1F [Example 271]	60
CN1N(Cc2ccc(OCCOCCNCC(O)CO)c(F)c2F)C(=O)C(C(=O)Nc2ccc(C(F)(F)F)cc2-c2cc(C(F)(F)F)ncn2)=C(O)C12CCCC2 (centres unmarked) [Example 419, 7-[[4-[2-[2-(2,3-Dihydroxypropylamino)ethoxy]ethoxy]-2,3-difluorophenyl]methyl]-10-hydroxy-6-methyl-8-oxo-N-[4-(trifluoromethyl)-2-[6-(trifluoromethyl)pyrimidin-4-yl]phenyl]-6,7-diazaspiro[4.5]dec-9-ene-9-carboxamide]	22
C[C@]12CCCN1N(Cc1cccc(F)c1F)C(=O)C(C(=O)Nc1ccc(Br)cc1-c1ccc(Cl)nc1)=C2O [Example 122, (4aR)-N-[4-Bromo-2-(6-chloropyridin-3-yl)phenyl]-1-[(2,3-difluorophenyl)methyl]-4-hydroxy-4a-methyl-2-oxo-6,7-dihydro-5H-pyrrolo[1,2-b]pyridazine-3-carboxamide]	82

Molecule	Rate of uptake inhibition (%) (1 µM)
CN1N(Cc2cccc(F)c2F)C(=O)C(C(=O)Nc2ccc(Cl)cc2-c2cc(C(F)(F)F)ncn2)=C(O)C12CCCC2 [Example 261]	77
Cc1c(-c2cc(C(F)(F)F)ccc2NC(=O)C2=C(O)C3(CCCC3)N(C)N(Cc3ccc(OCCN4CCOCC4)c(F)c3F)C2=O)ncnc1C(F)(F)F [Example 290]	59
C[C@]12CCCN1N(Cc1cccc([N+](=O)[O-])c1)C(=O)C(C(=O)Nc1ccc(Br)c(F)c1)=C2O [Example 27]	76
COCC(C)(C)N(C)CCOc1ccc(CN2C(=O)C(C(=O)Nc3ccc(C(F)(F)F)cc3-c3cc(C(F)(F)F)ncn3)=C(O)C3(CCC3)N2C)c(F)c1F [Example 349]	55
CCN(CCN(C)CCOC)c1ccc(CN2C(=O)C(C(=O)Nc3ccc(C(F)(F)F)cc3-c3cc(C(F)(F)F)ncn3)=C(O)C3(CCCC3)N2C)c(F)c1F [Example 443]	28
CC(=O)NCCN(C)CCOc1ccc(CN2C(=O)C(C(=O)Nc3ccc(C(F)(F)F)cc3-c3cc(C(F)(F)F)ncn3)=C(O)C3(CCC3)N2C)c(F)c1F [Example 353]	26
CN1N(Cc2ccc(NCCN3CCOCC3)c(F)c2F)C(=O)C(C(=O)Nc2ccc(C(F)(F)F)cc2-c2cc(C(F)(F)F)ncn2)=C(O)C12CCCC2 [Example 447]	50
CN1[C@@H](C(C)(C)C)C(O)=C(C(=O)Nc2ccc(Br)c(C(F)(F)F)c2)C(=O)N1Cc1cccc(F)c1F [Example 243]	63
CN1N(Cc2ccc(OCCCCCOC[C@H](O)CO)c(F)c2F)C(=O)C(C(=O)Nc2ccc(C(F)(F)F)cc2-c2ccc(C(F)(F)F)nc2)=C(O)C12CCCC2 [Example 388]	15
CC(C)(C)[C@H]1C(O)=C(C(=O)Nc2cc(F)c(Br)c(F)c2)C(=O)N(Cc2cccc(F)c2F)N1CC(F)(F)F [Example 248]	45
COCCN1CC(Oc2ccc(CN3C(=O)C(C(=O)Nc4ccc(C(F)(F)F)cc4-c4cc(C(F)(F)F)ncn4)=C(O)C4(CCC4)N3C)c(F)c2F)C1 [Example 406, 6-[[2,3-Difluoro-4-[1-(2-methoxyethyl)azetidin-3-yl]oxyphenyl]methyl]-9-hydroxy-5-methyl-7-oxo-N-[4-(trifluoromethyl)-2-[6-(trifluoromethl)pyrimidin-4-yl]phenyl]-5,6-diazaspiro[3.5]non-8-ene-8-carboxamide]	27
COCCN(C)CCOc1c(I)cc(CN2C(=O)C(C(=O)Nc3ccc(C(F)(F)F)cc3-c3cc(C(F)(F)F)ncn3)=C(O)C3(CCCC3)N2C)c(F)c1F [Example 437, 7-[[2,3-Difluoro-5-iodo-4-[2-[2-methoxyethyl(methyl)amino]ethoxy]phenyl]methyl]-10-hydroxy-6-methyl-8-oxo-N-[4-(trifluoromethyl)-2-(6-(trifluoromethyl)pyrimidin-4-yl]phenyl]-6,7-diazaspiro[4.5]dec-9-ene-9-carboxamide]	45
CN1N(Cc2ccc(OCCNC(CC(=O)O)CC(=O)O)c(F)c2F)C(=O)C(C(=O)Nc2ccc(C(F)(F)F)cc2-c2cc(C(F)(F)F)ncn2)=C(O)C12CCCC2 [Example 382, 3-[2-[2,3-Difluoro-4-[[10-hydroxy-6-methyl-8-oxo-9-[[4-(trifluoromethyl)-2-[6-(trifluoromethyl)pyrimidin-4-yl]phenyl]carbamoyl]-6,7-diazaspiro[4.5]dec-9-en-7-yl]methyl]phenoxy]ethylamino]pentanedioate]	21
CCC1(CC)C(O)=C(C(=O)Nc2ccc(C(F)(F)F)cc2-c2ccc(C(F)(F)F)nc2)C(=O)N(Cc2ccc(OCCN3CCOCC3)c(F)c2F)N1C [Example 293]	47
CC(=O)N(C)CCN(C)CCOc1ccc(CN2C(=O)C(C(=O)Nc3ccc(C(F)(F)F)cc3-c3cc(C(F)(F)F)ncn3)=C(O)C3(CCC3)N2C)c(F)c1F [Example 354]	31
CN1[C@@H](C(C)(C)C)C(O)=C(C(=O)Nc2ccc(Br)c(C(F)(F)F)n2)C(=O)N1Cc1cccc(F)c1F [Example 242]	69
C[C@]12CCCN1N(Cc1cccc(F)c1F)C(=O)C(C(=O)Nc1ccc(C(F)(F)F)cc1-c1cnc3ccccc3c1)=C2O [Example 83]	90
CN(CCOCCC(=O)N(C)C[C@H](O)[C@@H](O)[C@H](O)[C@H](O)CO)CCOc1ccc(CN2C(=O)C(C(=O)Nc3ccc(C(F)(F)F)cc3-c3cc(C(F)(F)F)ncn3)=C(O)C3(CCCC3)N2C)c(F)c1F [Example 425]	5
CCC1(CC)C(O)=C(C(=O)Nc2ccc(Cl)cc2-c2ccc(C(F)(F)F)nc2)C(=O)N(Cc2ccc(OCCN3CCOCC3)c(F)c2F)N1C [Example 294]	40
